Paper PMC4660513 (Pharmacognosy Research, 2015)
“And” between values parts separate entries of the source, which are not always exact repeats. Equal entries are not always repeated. Structures can show the parent of a compound that is named as a salt. Where two headings read alike, the source gives them in different places.

Legend:
human UGT2B7 [1] = conditions: read-out: Km for 4-MU glucuronidation by human UGT2B7 isoform; cited from earlier work
[2] = tested on: UGT (4-MU glucuronidation); assay: 4-MU glucuronidation inhibition assay in rat liver microsomes; type: in vitro ADME; conditions: rat, rat liver microsomes, pH 7.4, probe 4-methylumbelliferone (4-MU), 100 μM
recombinant human UGT1A1 = target: T1, recombinant human UGT1A1 (Homo sapiens, UniProt P22309); assay: 4-MU glucuronidation inhibition assay with recombinant human UGT1A1 isoform; type: in vitro ADME
T1 sequence (P22309 26-533): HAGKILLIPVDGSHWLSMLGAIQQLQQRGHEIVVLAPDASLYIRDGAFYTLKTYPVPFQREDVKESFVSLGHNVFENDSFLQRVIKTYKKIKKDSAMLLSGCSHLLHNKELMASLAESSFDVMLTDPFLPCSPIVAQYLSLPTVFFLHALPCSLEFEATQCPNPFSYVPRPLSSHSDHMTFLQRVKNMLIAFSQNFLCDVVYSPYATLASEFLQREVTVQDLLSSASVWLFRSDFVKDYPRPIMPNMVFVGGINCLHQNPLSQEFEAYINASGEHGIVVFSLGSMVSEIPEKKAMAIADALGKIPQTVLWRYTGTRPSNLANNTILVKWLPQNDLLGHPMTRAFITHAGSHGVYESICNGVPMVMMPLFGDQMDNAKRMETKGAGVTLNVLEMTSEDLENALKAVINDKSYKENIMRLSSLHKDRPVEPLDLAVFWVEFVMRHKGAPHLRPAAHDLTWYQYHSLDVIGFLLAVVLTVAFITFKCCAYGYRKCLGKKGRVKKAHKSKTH

UGT (s) = conditions: cited from earlier work
human UGT2B15 = conditions: read-out: estimated IC50, human UGT2B15; previous study; cited from earlier work
human UGT2B7 [3] = conditions: read-out: estimated IC50, human UGT2B7; previous study; cited from earlier work
[4] = cited from earlier work
human UGT1A1 = conditions: previous report; cited from earlier work
recombinant human UGT2B7 = target: T2, recombinant human UGT2B7 (Homo sapiens, UniProt P16662); assay: 4-MU glucuronidation inhibition assay with recombinant human UGT2B7 isoform; type: in vitro ADME
T2 sequence (P16662 24-529): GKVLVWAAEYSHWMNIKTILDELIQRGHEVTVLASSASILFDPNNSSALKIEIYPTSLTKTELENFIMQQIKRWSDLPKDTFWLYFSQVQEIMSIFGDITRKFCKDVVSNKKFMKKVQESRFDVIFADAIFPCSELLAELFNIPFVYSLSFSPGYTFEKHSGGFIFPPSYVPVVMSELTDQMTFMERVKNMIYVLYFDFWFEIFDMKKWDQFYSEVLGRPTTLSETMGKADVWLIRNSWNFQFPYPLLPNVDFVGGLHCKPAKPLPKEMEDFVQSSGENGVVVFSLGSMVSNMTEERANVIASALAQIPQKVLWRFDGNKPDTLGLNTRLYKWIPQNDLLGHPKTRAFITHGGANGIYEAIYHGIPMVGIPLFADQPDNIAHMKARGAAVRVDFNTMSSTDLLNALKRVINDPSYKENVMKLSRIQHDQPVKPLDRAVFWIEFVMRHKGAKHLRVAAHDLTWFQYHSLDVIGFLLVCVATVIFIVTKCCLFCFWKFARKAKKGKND

rat liver microsomes = assay: 4-MU glucuronidation inhibition assay in rat liver microsomes; type: in vitro ADME
UGT1A1 = conditions: except at highly extraordinary concentrations; cited from earlier work
human UGT2B7 [5] = conditions: read-out: Km for buprenorphine glucuronidation by human UGT2B7 isoform; cited from earlier work
human liver microsomes = assay: 4-MU glucuronidation inhibition assay in human liver microsomes; type: in vitro ADME; conditions: comparison of IC50 values

Compound: Cc1cc(=O)oc2cc(O)ccc12 [4-MU, 4-methylumbelliferone]
- Km (human UGT2B7 [1]): 335 µM

Compound: O=C(O)Cc1ccccc1Nc1c(Cl)cccc1Cl [Diclofenac, diclofenac]
- IC50 at 30 min [2]: 21.1 ± 1.32 µM
- IC50 (recombinant human UGT1A1): 2.34 ± 1.28 µM

Compound: CNC1(c2ccccc2Cl)CCCCC1=O (centres unmarked) [Ketamine, Ketamine hydrochloride]
- manner of inhibition of morphine-3-glucuronide formation (UGT (s)): non-competitive
- IC50 at 30 min [2]: 6.21 ± 1.51 µM
- IC50 (human UGT2B15): 95 µM
- IC50 (human UGT2B7 [3]): 55 µM
- ketamine concentration after low-dose administration ([4]; 0.125–0.250 mg/kg intravenous): > 0.42 μM and > 100 μg/l
- mean plasma concentration during steady-state anesthesia ([4]; induction 2 mg/kg, maintenance approx. 40 μg/kg/min): 9.3 µM
- IC50 (recombinant human UGT1A1): > 1000 µM
- inhibitory effect on 4-MU glucuronidation in human UGT1A1 isoform (human UGT1A1): weak inhibitory effect
- IC50 (recombinant human UGT2B7): 27.3 ± 1.18 µM

Compound: buprenorphine hydrochloride
- potency relative to diclofenac (rat liver microsomes; rat liver microsomes, comparison of IC50 values): about three orders of magnitude less potent than diclofenac
- IC50 (rat liver microsomes; read-out: IC50 on 4-MUG formation, rat liver microsomes): 73.2 ± 1.63 µM
- inhibitory effect on bilirubin glucuronidation catalyzed by UGT1A1 (UGT1A1): no significant inhibitory effect
- Km (human UGT2B7 [5]): 20.9 µM
- potency relative to diclofenac (more potent) (human liver microsomes): about 13 orders of magnitude
